Measured values published in ChEMBL document CHEMBL1201862, “PubChem BioAssay data set” (2004).
Activity calls are given as the source filed them.

Columns and labels:
[1] = molecular target: Induced myeloid leukemia cell differentiation protein Mcl-1 (Homo sapiens, UniProt Q07820); format: functional
[2] = molecular target: T1, Histone-lysine N-methyltransferase NSD2 (Homo sapiens, UniProt O96028); format: biochemical
T1 sequence (O96028 whole entry): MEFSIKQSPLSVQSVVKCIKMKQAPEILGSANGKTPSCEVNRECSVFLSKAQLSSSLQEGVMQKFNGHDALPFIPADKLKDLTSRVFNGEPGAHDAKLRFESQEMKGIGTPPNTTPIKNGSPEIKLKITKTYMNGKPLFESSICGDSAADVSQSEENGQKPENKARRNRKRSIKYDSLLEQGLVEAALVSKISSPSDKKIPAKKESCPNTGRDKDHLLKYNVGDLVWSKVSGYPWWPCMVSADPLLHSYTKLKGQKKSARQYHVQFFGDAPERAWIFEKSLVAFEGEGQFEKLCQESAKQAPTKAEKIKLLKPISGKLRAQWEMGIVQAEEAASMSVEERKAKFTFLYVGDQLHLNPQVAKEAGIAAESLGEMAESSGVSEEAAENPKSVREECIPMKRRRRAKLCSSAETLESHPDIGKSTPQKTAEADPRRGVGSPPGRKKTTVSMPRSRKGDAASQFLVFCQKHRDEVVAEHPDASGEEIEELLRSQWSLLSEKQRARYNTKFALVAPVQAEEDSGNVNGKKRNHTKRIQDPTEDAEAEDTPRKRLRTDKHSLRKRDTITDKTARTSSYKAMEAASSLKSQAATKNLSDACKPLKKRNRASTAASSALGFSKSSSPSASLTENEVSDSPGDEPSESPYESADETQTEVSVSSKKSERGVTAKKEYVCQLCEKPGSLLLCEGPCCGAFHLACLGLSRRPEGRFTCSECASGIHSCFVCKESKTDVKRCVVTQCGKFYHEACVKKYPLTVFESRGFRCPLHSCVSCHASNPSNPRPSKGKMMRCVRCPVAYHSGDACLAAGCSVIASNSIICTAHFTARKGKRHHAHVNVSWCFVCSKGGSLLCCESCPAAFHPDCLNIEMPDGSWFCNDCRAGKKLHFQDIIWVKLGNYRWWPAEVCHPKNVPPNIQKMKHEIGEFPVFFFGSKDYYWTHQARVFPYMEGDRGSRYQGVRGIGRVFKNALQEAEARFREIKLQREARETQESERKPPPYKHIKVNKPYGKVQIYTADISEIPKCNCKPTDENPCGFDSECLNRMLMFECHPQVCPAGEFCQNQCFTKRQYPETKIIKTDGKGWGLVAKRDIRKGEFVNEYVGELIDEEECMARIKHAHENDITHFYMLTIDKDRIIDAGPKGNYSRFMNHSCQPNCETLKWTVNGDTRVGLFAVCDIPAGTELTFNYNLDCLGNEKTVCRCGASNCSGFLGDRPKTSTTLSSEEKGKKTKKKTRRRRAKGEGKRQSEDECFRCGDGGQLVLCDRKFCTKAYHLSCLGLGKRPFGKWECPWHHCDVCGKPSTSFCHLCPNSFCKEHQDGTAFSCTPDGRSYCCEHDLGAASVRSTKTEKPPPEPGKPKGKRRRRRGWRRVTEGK

[3] = molecular target: Genome polyprotein (dengue virus type 2, UniProt P29990); experiment: Dengue-2 NS5 methyltransferase inhibitors, primary screen, biochemical, confirmation dose response (AID 588689); format: functional
Chain of Genome polyprotein (P29990 2492-3391 limits assumed): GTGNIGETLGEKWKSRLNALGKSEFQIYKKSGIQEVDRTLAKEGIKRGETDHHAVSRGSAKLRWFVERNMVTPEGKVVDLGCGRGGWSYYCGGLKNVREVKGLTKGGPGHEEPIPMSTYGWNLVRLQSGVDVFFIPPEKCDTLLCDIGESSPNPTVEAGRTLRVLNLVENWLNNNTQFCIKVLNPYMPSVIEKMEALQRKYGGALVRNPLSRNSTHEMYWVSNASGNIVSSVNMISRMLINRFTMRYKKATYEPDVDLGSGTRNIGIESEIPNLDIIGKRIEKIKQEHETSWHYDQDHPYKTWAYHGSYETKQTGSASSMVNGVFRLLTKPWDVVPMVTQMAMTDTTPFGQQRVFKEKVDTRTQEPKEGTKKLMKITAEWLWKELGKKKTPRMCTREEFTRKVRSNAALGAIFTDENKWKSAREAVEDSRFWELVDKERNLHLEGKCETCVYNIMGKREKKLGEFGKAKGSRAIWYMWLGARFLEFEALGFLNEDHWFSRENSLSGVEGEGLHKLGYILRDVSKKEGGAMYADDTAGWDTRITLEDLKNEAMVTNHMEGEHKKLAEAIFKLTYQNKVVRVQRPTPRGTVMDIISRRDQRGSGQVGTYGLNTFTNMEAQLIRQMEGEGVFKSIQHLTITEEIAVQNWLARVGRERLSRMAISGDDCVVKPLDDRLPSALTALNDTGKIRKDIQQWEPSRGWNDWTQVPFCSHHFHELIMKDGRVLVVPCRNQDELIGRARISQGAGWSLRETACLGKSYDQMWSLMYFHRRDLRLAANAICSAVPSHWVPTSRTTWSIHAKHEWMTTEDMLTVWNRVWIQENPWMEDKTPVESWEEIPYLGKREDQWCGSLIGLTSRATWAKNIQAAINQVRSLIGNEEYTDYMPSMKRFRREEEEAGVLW

[4] = molecular target: Cyclin-dependent kinase 5/CDK5 activator 1 (Homo sapiens, UniProt Q00535); experiment: CDK5/p35 kinase inhibitors, dose response, biochemical, cherry-picked samples, set 2 (AID 504545)
Chain of Cyclin-dependent kinase 5/CDK5 activator 1 (Q00535 whole entry): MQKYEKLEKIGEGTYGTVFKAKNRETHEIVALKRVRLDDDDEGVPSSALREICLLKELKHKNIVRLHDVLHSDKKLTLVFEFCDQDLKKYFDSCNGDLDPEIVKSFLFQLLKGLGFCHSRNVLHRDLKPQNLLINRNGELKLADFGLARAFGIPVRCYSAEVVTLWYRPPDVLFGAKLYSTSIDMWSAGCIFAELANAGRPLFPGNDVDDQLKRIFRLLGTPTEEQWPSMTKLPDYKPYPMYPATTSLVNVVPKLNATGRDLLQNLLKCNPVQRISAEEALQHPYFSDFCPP
Chain of Cyclin-dependent kinase 5/CDK5 activator 1 (Q15078 whole entry, further chain): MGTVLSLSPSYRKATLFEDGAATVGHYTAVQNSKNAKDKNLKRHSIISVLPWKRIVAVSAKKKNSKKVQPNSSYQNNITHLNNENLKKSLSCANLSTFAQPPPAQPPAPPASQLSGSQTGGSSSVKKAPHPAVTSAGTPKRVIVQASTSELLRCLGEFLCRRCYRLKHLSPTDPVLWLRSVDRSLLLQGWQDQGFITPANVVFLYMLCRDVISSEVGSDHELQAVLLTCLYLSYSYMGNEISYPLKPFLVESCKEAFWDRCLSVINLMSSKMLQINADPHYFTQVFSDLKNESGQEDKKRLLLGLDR

[5] = molecular target: T2, Endoribonuclease toxin MazF (Escherichia coli K-12, UniProt P0AE70); experiment: fluorescent RNA oligo signal without MazF, dose response, counter-screen for MazEF activator project, biochemical, fluorescence, single-stranded RNase substrate (AID 588502); format: functional
T2 sequence (P0AE70 whole entry): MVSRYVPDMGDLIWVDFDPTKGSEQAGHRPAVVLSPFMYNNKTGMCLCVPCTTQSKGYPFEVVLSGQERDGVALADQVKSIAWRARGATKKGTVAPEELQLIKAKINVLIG

Chain of Induced myeloid leukemia cell differentiation protein Mcl-1 (Q07820 whole entry): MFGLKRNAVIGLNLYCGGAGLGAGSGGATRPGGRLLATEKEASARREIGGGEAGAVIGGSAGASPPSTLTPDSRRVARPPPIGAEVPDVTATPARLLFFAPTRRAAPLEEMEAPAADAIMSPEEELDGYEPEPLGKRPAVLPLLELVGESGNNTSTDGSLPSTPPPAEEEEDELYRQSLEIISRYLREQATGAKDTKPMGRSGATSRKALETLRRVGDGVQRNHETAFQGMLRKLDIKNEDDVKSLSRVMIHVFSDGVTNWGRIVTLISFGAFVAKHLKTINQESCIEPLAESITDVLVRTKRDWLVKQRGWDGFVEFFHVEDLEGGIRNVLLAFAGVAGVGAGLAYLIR

`O=c1c(O)cccc2cc(O)c(O)c(O)c12` [PURPUROGALLIN] was tested, and the IC50 [1] was > 54 µM (active), the AC50 [2] was 0.532 µM (active) and the IC50 [3] was 12.2 µM (active). For the same compound, the AC50 [4] was 23.2 µM (active) and the EC50 [5] was > 99 µM (inactive).
